Measured values published in patent US4404138A, “3-[2-(Azabicyclo) ethyl]-1,2,3,4-tetrahydro-5H-[1]benzopyrano[3,4-c]pyridin-5-ones” (Warner-Lambert Company, priority 1982, dated 1983).
Counter-ions that a name gives are not always drawn.

Tested on: Conscious guinea pigs exposed to an aerosol of methacholine
Test: Methacholine aerosol collapse time in conscious guinea pigs (anticholinergic test)
Type: in vivo
Details: 25 mg/kg intraperitoneally, 10 minutes methacholine aerosol; for (Minutes Protection): collapse time, Control 1.9 to 2.0; for (Minutes Protection), given in words: time not given
Experimental: Conscious guinea pigs, six at a time, are put into a sealed chamber and exposed for 10 minutes to an aerosol of methacholine.

| SMILES | (Minutes Protection) | (Minutes Protection), given in words |
| --- | --- | --- |
| O=c1oc2cc3c(cc2c2c1CN(CCN1CC4CCC(CC4)C1)CC2)OCO3 [R1+R2=OCH2O, R3=H, X=drawing 10, 3-[2-(3-Azabicyclo[3.2.2]non-3-yl)ethyl]-1,2,3,4-tetrahydro-5H-[1,3]benzodioxolo[5',6':5,6]pyrano[3,4-c]pyridin-5-one] | 2.3 min | – |
| Cc1cc2oc(=O)c3c(c2cc1Cl)CCN(CCN1CC2CCC(CC2)C1)C3 [R1=Cl, R2=Me, R3=H, X=drawing 10, 3-[2-(3-Azabicyclo[3.2.2]non-3-yl)ethyl]-9-chloro-1,2,3,4-tetrahydro-8-methyl-5H-[1]benzopyrano[3,4-c]pyridin-5-one] | 2.1 min | – |
| Cc1cc2oc(=O)c3c(c2cc1Cl)CCN(CCN1CC2CCCC(C2)C1)C3 [R1=Cl, R2=Me, R3=H, X=drawing 12] | 2.6 min | – |
| CCOc1cc2oc(=O)c3c(c2cc1OCC)CCN(CCN1CC2CCC(CC2)C1)C3 [R1=EtO, R2=EtO, R3=H, X=drawing 10, 3-[2-(3-Azabicyclo[3.2.2]non-3-yl)ethyl]-1,2,3,4-tetrahydro-8,9-diethoxy-5H-[1]benzopyrano[3,4-c]pyridin-5-one] | 6.3 min | – |
| O=c1oc2c(ccc3ccccc32)c2c1CN(CCN1CC3CCC(CC3)C1)CC2 [R1=H, R2+R3=CH CHCHCH, X=drawing 10, 2-[2-(3-Azabicyclo[3.2.2]non-3-yl)ethyl]-1,2,3,4-tetrahydro-12H-naphtho[2',1',:5,6]pyrano[3,4-c]pyridin-12-one dihydrochloride] | 2.7 min | – |
| CC(C)c1ccc2c3c(c(=O)oc2c1)CN(CCN1CC2CCC(CC2)C1)CC3.Cl.Cl [R1=H, R2=CHMe2, R3=H, X=drawing 10, 3-[2-(3-Azabicyclo[3.2.2]non-3-yl)ethyl]-1,2,3,4-tetrahydro-8-(1-methylethyl)-5H-[1]benzopyrano[3,4-c]pyridin-5-one dihydrochloride] | 6.2 min | – |
| CC(C)(C)c1ccc2c3c(c(=O)oc2c1)CN(CCN1CC2CCC(CC2)C1)CC3.Cl.Cl [R1=H, R2=CMe3, R3=H, X=drawing 10, 3-[2-(3-Azabicyclo[3.2.2]non-3-yl)ethyl]-8-(1,1-dimethylethyl)-1,2,3,4-tetrahydro-5H-[1]benzopyrano[3,4-c]pyridin-5-one, dihydrochloride] | 3.4 min | – |
| CCc1ccc2c3c(c(=O)oc2c1)CN(CCN1CC2CCC(CC2)C1)CC3.Cl.Cl [R1=H, R2=Et, R3=H, X=drawing 10, 3-(2-(3-Azabicyclo[3,2,2]non-3-yl)ethyl]-8-ethyl-1,2,3,4-tetrahydro-5H-benzopyrano[3,4-c]pyridin-5-one, dihydrochloride] | 6.8 min | – |
| O=c1oc2ccccc2c2c1CN(CCN1CC3CCC(CC3)C1)CC2 [R1=H, R2=H, R3=H, X=drawing 10, 3-[2-(3-Azabicyclo[3.2.2]non-3-yl)ethyl]-1,2,3,4-tetrahydro-5H-[1]benzopyrano[3,4-c]pyridin-5-one] | 5.2 min | – |
| O=c1oc2ccccc2c2c1CN(CCN1CC3CCCC(C3)C1)CC2 [R1=H, R2=H, R3=H, X=drawing 12, 3-[2-(3-Azabicyclo[3.3.1]non-3-yl)ethyl]-1,2,3,4-tetrahydro-5H-[1]benzopyrano[3,4-c]pyridin-5-one] | 3.3 min | – |
| Cc1ccc2c3c(c(=O)oc2c1)CN(CCN1CC2CCC(CC2)C1)CC3 [R1=H, R2=Me, R3=H, X=drawing 10, 3-[2-(3-Azabicyclo[3.2.2]non-3-yl)ethyl]-1,2,3,4-tetrahydro-8-methyl-5H-[1]benzopyrano[3,4-c]pyridin-5-one] | 5.0 min | – |
| Cc1ccc2c3c(c(=O)oc2c1)CN(CCN1CC2CCC1CC2)CC3 [R1=H, R2=Me, R3=H, X=drawing 11, 3-[2-(2-Azabicyclo[2.2.2]oct-2-yl)ethyl]-1,2,3,4-tetrahydro-8-methyl-5H-[1]benzopyrano[3,4-c]pyridin-5-one] | 2.3 min | – |
| Cc1ccc2c3c(c(=O)oc2c1)CN(CCN1CC2CCCC(C2)C1)CC3 [R1=H, R2=Me, R3=H, X=drawing 12, 3-[2-(3-Azabicyclo[3.3.1]non-3-yl)ethyl]-1,2,3,4-tetrahydro-8-methyl-5H-[1]benzopyrano[3,4-c]pyridin-5-one] | 3.1 min | – |
| COc1ccc2c3c(c(=O)oc2c1)CN(CCN1CC2CCC(CC2)C1)CC3.Cl.Cl [R1=H, R2=MeO, R3=H, X=drawing 10, 3-[2-(3-Azabicyclo[3.2.2]non-3-yl)ethyl]-1,2,3,4-tetrahydro-8-methoxy-5H-[1]benzopyrano[3,4-c]pyridin-5-one, dihydrochloride] | 6.0 min | – |
| COc1ccc2c3c(c(=O)oc2c1)CN(CCN1CC2CCC1CC2)CC3 [R1=H, R2=MeO, R3=H, X=drawing 11, 3-[2-(2-Azabicyclo[2.2.2]oct-2-yl)ethyl]-1,2,3,4-tetrahydro-8-methoxy-5H-[1]benzopyrano[3,4-c]pyridin-5-one] | 10.0 min | – |
| COc1ccc2c3c(c(=O)oc2c1)CN(CCN1CC2CCCC(C2)C1)CC3 [R1=H, R2=MeO, R3=H, X=drawing 12, 3-[2-(3-Azabicyclo[3.3.1]non-3-yl)ethyl]-1,2,3,4-tetrahydro-8-methoxy-5H-[1]benzopyrano[3,4-c]pyridin-5-one] | 7.3 min | – |
| COc1ccc2c3c(c(=O)oc2c1OC)CN(CCN1CC2CCC(CC2)C1)CC3.Cl.Cl [R1=H, R2=MeO, R3=MeO, X=drawing 10, 3-[2-(3-Azabicyclo[3.2.2]non-3-yl)ethyl]-1,2,3,4-tetrahydro-7,8-dimethoxy-5H-[1]benzopyrano[3,4-c]pyridin-5-one dihydrochloride] | 3.0 min | – |
| O=c1oc2cc(O)ccc2c2c1CN(CCN1CC3CCC(CC3)C1)CC2 [R1=H, R2=OH, R3=H, X=drawing 10] | 6.1 min | – |
| Cl.Cl.O=c1oc2cc(-c3ccccc3)ccc2c2c1CN(CCN1CC3CCC(CC3)C1)CC2 [R1=H, R2=Ph, R3=H, X=drawing 10, 3-[2-(3-Azabicyclo[3.2.2]non-3-yl)ethyl]-1,2,3,4-tetrahydro-8-phenyl-5H-[1]benzopyrano[3,4-c]pyridin-5-one, dihydrochloride] | 2.1 min | – |
| Cc1cc2oc(=O)c3c(c2cc1C)CCN(CCN1CC2CCC(CC2)C1)C3 [R1=Me, R2=Me, R3=H, X=drawing 10, 3-[2-(3-Azabicyclo[3.2.2]non-3-yl)ethyl]-1,2,3,4-tetrahydro-8,9-dimethyl-5H-[1]benzopyrano[3,4-c]pyridin-5-one] | 5.1 min | – |
| COc1cc2oc(=O)c3c(c2cc1OC)CCN(CCN1CC2CCC(CC2)C1)C3.Cl.Cl [R1=MeO, R2=MeO, R3=H, X=drawing 10, 3-[2-(3-Azabicyclo[3.2.2]non-3-yl)ethyl]-1,2,3,4-tetrahydro-8,9-dimethoxy-5H-[1]benzopyrano[3,4-c]pyridin-5-one dihydrochloride] | – | Active |
| COc1cc2oc(=O)c3c(c2cc1OC)CCN(CCN1CC2CCC1CC2)C3 [R1=MeO, R2=MeO, R3=H, X=drawing 11, 3-[2-(2-Azabicyclo[2.2.2]oct-2-yl)ethyl]-1,2,3,4-tetrahydro-8,9-dimethoxy-5H-[1]benzopyrano[3,4-c]pyridine-5-one] | 7.6 min | – |
| COc1cc2oc(=O)c3c(c2cc1OC)CCN(CCN1CC2CCCC(C2)C1)C3 [R1=MeO, R2=MeO, R3=H, X=drawing 12, 3-[2-(3-Azabicyclo[3.3.1]non-3-yl)ethyl]-1,2,3,4-tetrahydro-8,9-dimethoxy-5H-[1]benzopyrano[3,4-c]pyridin-5-one] | 6.6 min | – |
| Cc1cc2oc(=O)c3c(c2cc1N)CCN(CCN1CC2CCC(CC2)C1)C3 [R1=NH2, R2=Me, R3=H, X=drawing 10, 9-Amino-3-[2-(3-azabicyclo[3.2.2]non-3-yl)ethyl]-1,2,3,4-tetrahydro-8-methyl-5H-[1]benzopyrano[3,4-c]pyridin-5-one] | 1.9 min | – |
| CC(=O)Nc1cc2c3c(c(=O)oc2cc1C)CN(CCN1CC2CCC(CC2)C1)CC3 [R1=NHCOCH3, R2=Me, R3=H, X=drawing 10, N-{3-[2-(3-Azabicyclo[3.2.2]non-3-yl)ethyl]-1,2,3,4-tetrahydro-8-methyl-5-oxo-2H-[1]benzopyrano[3,4-c]pyridin-9-yl}-acetamide] | – | Active |
| Cc1cc2oc(=O)c3c(c2cc1NC(=O)c1ccccc1)CCN(CCN1CC2CCC(CC2)C1)C3 [R1=NHCOPh, R2=Me, R3=H, X=drawing 10, N-{3-[2-(3-Azabicyclo[3.2.2]non-3-yl)ethyl]-1,3,4,5-tetrahydro-8-methyl-5-oxo-2H-[1]benzopyrano[3,4-c]pyridin-9-yl}-benzamide] | 3.8 min | – |
| Cc1cc2oc(=O)c3c(c2cc1[N+](=O)[O-])CCN(CCN1CC2CCC(CC2)C1)C3 [R1=NO2, R2=Me, R3=H, X=drawing 10, 3-[2-(3-Azabicyclo[3.2.2]non-3-yl)ethyl]-1,2,3,4-tetrahydro-8-methyl-9-nitro-5H-[1]benzopyrano[3,4-c]pyridin-5-one] | 1.9 min | – |
| Br.Br.O=c1oc2cc(O)c(O)cc2c2c1CN(CCN1CC3CCC(CC3)C1)CC2 [R1=OH, R2=OH, R3=H, X=drawing 10, 3-[2-(3-Azabicyclo[3.2.2]non-3-yl)ethyl]-1,2,3,4-tetrahydro-8,9-dihydroxy-5H-[1]benzopyrano[3,4-c]pyridin-5-one dihydrobromide] | 2.1 min | – |
